In PMC4128677, “Somatostatin Analogues for Receptor Targeted Photodynamic Therapy” (PLoS ONE, 2014):
Where “and” joins values, the source holds several entries; their conditions need not be identical. Equal values may be shown once.

Columns and labels:
[1] = tested on: sst2+ AR42J acinar pancreas tumors; assay: Intra-vital fluorescence pharmacokinetics in AR42J tumors in rat skin-fold chambers; format: in vivo; conditions: i.v. tail vein, conjugate 1 0.67 mg/kg, Ce6 0.2 mg/kg, rat skin-fold chamber
Procedure: Intra-vital confocal fluorescence imaging was performed in single sided rat skin-fold chambers transplanted with sst2 ^+ AR42J acinar pancreas tumors as described previously. The study was approved by the animal experimental committee of the Erasmus MC. Chambers were prepared in 12 animals divided into three groups. […] The first group of animals received Ce6 at a dose of 0.2 mg/kg, the second group received conjugate 1 at a dose of 0.67 mg/kg such that the same number of Ce6 molecules were administered to each animal; (equivalent Ce6 concentration of 2.011×10^−4 M).
Animals were anesthetized using isoflurane/O2 and autofluorescence images were recorded. Drug was administered intravenously into the tail vein. Fluorescence images were acquired 5 and 20 minutes after conjugate administration after which the animal was allowed to recover. Subsequent fluorescence images were acquired under anesthesia at 1, 4, 24, 72 and 96 hrs. […] Confocal fluorescence imaging (LSM 510 Meta (Zeiss, Germany)) was performed using a 40× objective. The distribution of Ce6 fluorescence was mapped under 514 nm laser excitation in the lambda mode (539–753 nm). […] Spectra acquired from individual pixels were analyzed as a linear combination of basis spectra and fitted using a singular value decomposition algorithm. The fluorescence of Ce6 and conjugate 1 was determined in ROIs. […]

[2] = 1-Octanol/PBS partition coefficient; format: physicochemical; conditions: 1-octanol / PBS pH = 7.4; Poct/buffer = Coct/Cbuffer; stock 0.6 mM in DMSO; duplicates
Procedure: Partition coefficient. Stock solutions of Ce6 and conjugates (0.6 mM) were prepared in DMSO. Lipophilicity was characterized by their partition coefficient Poct/buffer = Coct/Cbuffer between two solvents 1-octanol (oct) and PBS, pH = 7.4 (buffer). Measurements were carried out in duplicates as described by Cunderlikova et al.

[3] = tested on: K562 sst2+ cells; assay: In vitro PDT phototoxicity, K562 sst2+ cells; format: cell-based, human
Procedure: In vitro PDT experiments were performed to determine the phototoxicity of free Ce6 and conjugates. K562 sst2+ and WT cells were seeded in L-polylysine-coated (10 µg/ml) 96-well (8×10^3/well) and 24-well (4×10^4/well) and incubated overnight in 5% CO2 at 37°C. […] After incubation, cells were washed. Fresh serum-free medium was added, and cells were illuminated with 652 nm to a dose from 0.5 to 5 J cm^−2 at 5 mW.cm^−2. Thereafter, serum-containing medium was added and cells were allowed to grow for an additional 3 days in 5% FCS medium. Toxicity was determined by: measurement of DNA contents using the bisbenzimide fluorescent dye (Hoechst 33258, Boehring Diagnostics, CA, USA) and measurement of mitochondrial dehydrogenase cleavage of WST-1 reagent (Roche Diagnostics, Germany), [39]. Experiments were done in triplicates.

[4] = tested on: K562 sst2+ cells; assay: Cellular uptake in K562 sst2+ and WT cells; format: cell-based, human; conditions: 1 µM
Procedure: Stock solutions of Ce6 and Ce6-conjugates (1 mM) were dissolved in 80% DMSO and were stored in the dark at −20°C. Before experiments, the solutions were diluted to a concentration of 0.1 mM in 20% DMSO. K562 sst2+ or WT (3×10^5) in 1 ml RPMI 1640 serum-free or supplemented with 5% FCS were incubated with Ce6 or with conjugate (1 µM) for 15 min to 24 h in the dark at 37°C. After incubation, the cells were centrifuged, cell pellet dissolved in 2% SDS and fluorescence emission spectra (λexc = 405 nm) recorded. Photosensitizer concentrations were calculated in triplicate according to a calibration curve generated by mixing a known concentration of photosensitizer with a lysated control samples.

[5] = Photobleaching under 652 nm irradiation in PBS; format: physicochemical
Procedure: Photobleaching measurements. The loss of photosensitizer absorbance and fluorescence during irradiation was used to monitor photobleaching. Solutions of Ce6 and Ce6-conjugates were prepared in PBS pH = 7.4. The concentration of photosensitizers were adjusted so that all absorb the same number of photons at irradiated region (O.D. = 0.014 at the λirr. = 652 nm (Biolitec pharma, UK). Data was acquired in quartz cuvettes in aerobic conditions using stirring under uniform, measured irradiation at 5 mWcm^-2. At intervals, the cuvette was removed from magnetic stirrer and absorption and fluorescence emission spectrum (λexc = 405 nm) acquired. The initial absorption bleaching rate constants (kblA) for Ce6 and conjugates were evaluated as reported.

[6] = PBS pH = 7.4; used as reference; cited from earlier work
[7] = pH titration of fluorescence/absorbance (pKa); format: physicochemical; conditions: Fmax/A(λexc) versus pH, sigmoidal fit; PBS titrated with HNO3 and NaOH over pH 4.0-8.5; 0.8 µM; λexc = 408 nm
Procedure: pH measurements. The pH titration of PBS was performed with HNO3 and NaOH over pH 4.0-8.5. The final concentration of Ce6 and Ce6-conjugates in solution was 0.8 µM. The pH was measured by Sentron pH meter (Sentron Europe, NL) and the absorption and fluorescence emission (λexc = 408 nm) profiles of solutions were recorded. The inflection point of titration curves (pKa) were evaluated as reported. Briefly, the results of fluorescence titrations are presented in terms of a plot of fluorescence intensity as a function of pH with the constant concentration of the compound used throughout measurements. However, variations of fluorescence intensity are due to at least two contributions: the changes of molar extinction coefficient (differed absorbed intensity) and the changes of quantum efficiency with pH. To eliminate the influence of the molar extinction coefficient variations, the ratio of fluorescence intensity at the peak position to the absorbance at the excitation wavelength was plotted, followed by sigmoidal function fitting procedure (Figures S2-S4).

[8] = PBS pH = 7.4; used as reference; cited from earlier work; remark: listed apart in the source
From the text: The fluorescence quantum yield of Ce6 in neutral pH was similar to conjugates 1 (ΦF = 0.18 for Ce6 and ΦF = 0.20 for 1).

[9] = Steady-state absorption and fluorescence in PBS; format: physicochemical; conditions: PBS pH = 7.4
Procedure: Steady-State Fluorescence and Absorption Measurements. The fluorescence quantum yields (ΦF) of Ce6 and conjugates in PBS pH 7.4 were determined by a relative method. Ce6 in the buffer at pH 7.4 with the quantum yield of 0.18 [24,32,33] was used as a reference.
The absorption profile of Ce6 and conjugate in PBS of concentration (0.06–1µM) was recorded in Shimadzu spectrophotometer (UV-2101 PC, Duisburg, Germany).
The fluorescence emission of photosensitizers was recorded in a Perkin-Elmer spectrofluorimeter (LS 50B, Massachussetts, USA). Light at 408 nm was used for excitation. The concentration range of compounds matched to the O.D. up to 0.1.

In the case of `C=Cc1c(C)c2cc3nc(c(CC(=O)O)c4[nH]c(cc5nc(cc1[nH]2)C(C)=C5CC)c(C)c4C(=O)O)[C@@H](CCC(=O)O)[C@@H]3C` [Ce6, Chlorin e6], the “time of fluorescence peak in tumor tissue” value [1] is reported as “gradually increased over the first 3 days”, the “LogP, logarithm of partition coefficient” value [2] is reported as 0.005±0.05 and the “cell survival after PDT compared to control cells” value ([3]; K562 sst2+, 1 µM, 4 h incubation, serum-free, 652 nm, 5 J.cm^−2, read after 3 days) is reported as “almost complete inhibition of cell viability”. For the same compound, the “light dose from which phototoxicity was seen” value ([3]; K562 sst2+, 1 µM, 4 h incubation, 652 nm) was 0.5 J.cm^−2, the “effect on cell growth of photosensitizer alone in the absence of light” value ([3]; dark toxicity, K562 cells) was “no effect on cell growth” and the “uptake in sst2+ cells compared to WT cells (factor)” value ([4]; serum-free and 5% FCS medium, fluorescence of lysate, λexc = 405 nm) was “same result as for conjugate 2”. For the same compound, the “concentration taken up by sst2+ cells” value ([4]; 4 h incubation, K562 sst2+) was 90 nM, the “kblA, rate constant of initial absorption bleaching” value ([5]; PBS pH = 7.4, 652 nm irradiation at 5 mWcm^-2, O.D. = 0.014 at 652 nm, aerobic, stirring) was 25.69 x 10^−2 J^−1 cm^2 and the photostability ([5]; PBS, 652 nm irradiation, fluorescence bleaching) was “low photostability”. The “ΦΔ, singlet oxygen quantum yield (reference value)” value [6] was 0.64 and 0.64±0.08, the “pKa, inflection point of pH titration curve” value [7] was 6.71 and 6.71±0.0947 and the “ΦF, fluorescence quantum yield (reference value)” value [8] was 0.18. For the same compound, the “full width at half maximum of the Q(0,0) absorption band” value [9] was 21 nm, the “full width at half maximum of the Soret absorption band” value [9] was 27 nm and the “maximum of fluorescence band” value [9] was 661 nm. For the same compound, the “maximum of the Q(0,0) absorption band” value [9] was 655 nm and the “maximum of the Soret absorption band” value [9] was 402 nm.
